# Experimental data taken from patent US6146853A, “Cyclic depsipeptide PF 1022G” (Meiji Seika Kaisha Ltd., priority 1996, dated 2000).
# Tests used:
# [1] = Solubilities (physico-chemical properties); format: physicochemical
# [2] = Anthelmintic activities (general statement); details: no parasite or test named
smiles,measurement,setting,value
CC(C)C[C@H]1C(=O)O[C@H](C)C(=O)N(C)[C@@H](CC(C)C)C(=O)O[C@H](C)C(=O)N(C)[C@@H](CC(C)C)C(=O)O[C@H](C)C(=O)N(C)[C@@H](CC(C)C)C(=O)O[C@H](C)C(=O)N1C [PF 1022F substance],Solubilities: soluble in,"[1]; chloroform, acetone, ethyl acetate, methanol and dimethylsulfoxide",Soluble
same,Solubilities: insoluble in,[1]; water and n-hexane,Insoluble
same,solubility in water,"[1]; water, statement in the recovery description",insoluble in water
same,anthelmintic activities,[2],having anthelmintic activities
